Source: patent US20160368919A1, “NOVEL PYRIDINE PYRAZINONES AS BET-FAMILY BROMODOMAIN INHIBITORS” (Pfizer Inc., priority 2015, published 2016)

Columns and labels:
MM1.S cells = assay: MM1.S cell proliferation assay (CellTiter-Glo); type: cell-based; conditions: for IC50: MM1.S, CTG at 96h
Description: (§1) MM1.S (dexamethasone sensitive) and OPM-2 cells were purchased from ATCC and maintained in RPMI-1640 medium with 10% fetal bovine serum at 37 degrees, 5% CO2. Cells were seeded at 10,000 cells/well in 100 uL medium. The following day compounds or control vehicle (DMSO) were added at indicated concentrations in 10 ul volume. Compound treated OPM-2 cells and MM1.S cell were analyzed for cell density at 72h and 96h, respectively, using CellTiter-Glo® (CTG) reagent (Promega). The CTG assay measures the amount of ATP present, which indicates the number of viable cells in culture.

OPM-2 cells = assay: OPM-2 cell proliferation assay (CellTiter-Glo); type: cell-based; conditions: for IC50: OPM-2, CTG at 72h
Description: as §1

[1] = system: C4-2AR-F876L cells, AR(+); assay: CRPC cell proliferation assay (CellTiter-Glo), C4-2AR-F876L; type: cell-based; conditions: CTG at 96h
Description: (§2) Castrate-Resistant Prostate Cancer (CRPC) Cell Proliferation Assay • Cells were seeded into 96-well plates at 2,000-10,000 cells/well in 100 uL medium. Four AR(+) cell lines (LnCaP, C4-2 (parental), C4-2AR-WT and C4-2AR—F876L) and one AR(−) cell line (DU-145) were studied. Compound treated cells were analyzed for cell density at 96h, using CellTiter-Glo® (CTG) reagent (Promega).

DU-145 cells, AR(−) = assay: CRPC cell proliferation assay (CellTiter-Glo), DU-145; type: cell-based; conditions: CTG at 96h
Description: as §2

[2] = system: C4-2 (parental) cells, AR(+); assay: CRPC cell proliferation assay (CellTiter-Glo), C4-2; type: cell-based; conditions: CTG at 96h
Description: as §2

C4-2AR-WT cells, AR(+) = assay: CRPC cell proliferation assay (CellTiter-Glo), C4-2AR-WT; type: cell-based; conditions: CTG at 96h
Description: as §2

BRD4 BD1 = biological target: T1, BRD4 BD1 (Homo sapiens, UniProt O60885); assay: BRD4 BD1 Fluorescence Polarization (FP) competition binding assay; conditions: BRD4 BD1 40 nM, probe PFI-411FP 2 nM
T1 construct: His-tagged BRD4 BD1 (44-160); made in house
Description: Compound binding to BRD4 BD1 was assessed with a FP competition binding assay. […] All assay components were diluted in 50 mM HEPES pH 7.4 containing 0.08% bovine serum albumin (assay buffer). To start the assay, 8 μL of BRD4 BD1 was added to each well of a low volume 384-well black flat bottom microtiter plate (Corning 3820) containing 4 μl of various concentrations of test compound (each plate also contained positive and negative control wells to define the upper and lower limits of the assay signal). After addition of BRD4 BD1, the assay plate was incubated at room temperature (RT, 20° C.). After 15 minutes, 4 μL of PFI-411FP was added to each well and the assay plate was placed in the dark at RT. The final assay concentration (FAC) of PFI-411FP was 2 nM, the FAC of BRD4 BD1 was 40 nM, the FAC of test compound ranged from 120 to 0.0012 μM and the FAC of DMSO was 0.4%. After 60 min, polarization values were measured with an Envision 2103 multilabel reader (Perkin Elmer) using a Cy5 dual enhanced mirror and excitation at 620 nm and emission at 688 nm. The percent (%) effect was calculated for each concentration of test compound and was relative to the amount of polarization signal produced by the positive and negative control wells contained within each assay plate. The concentrations and % effect values for test compounds were plotted versus each other with a proprietary curve fitting program using a four-parameter logistic dose response equation and the concentration of compound required for 50% effect (IC50) was determined. The Ki values of competitive inhibitors were calculated using the equation described by Nikolovska-Coleska et al. (Development and optimization of a binding assay for the XIAP BIR3 domain using fluorescence polarization. Analytical Biochemistry (2004) 332: 261-273).

LnCaP cells, AR(+) = assay: CRPC cell proliferation assay (CellTiter-Glo), LnCaP; type: cell-based; conditions: CTG at 96h
Description: as §2

[3] = system: LPS-induced IL-6 production in human whole blood; assay: IL-6 human whole blood (HWB) assay, LPS-stimulated, HTRF detection; type: cell-based; conditions: 1 ng/ml LPS, 4 hours
Description: Compound effect on IL-6 production was determined using lipopolysaccharide (LPS)-stimulated human whole blood and an HTRF (Homogeneous Time-Resolved Fluorescence) IL-6 detection kit (Human IL6 HTRF Assay CisBio 62IL6PEC). HWB was collected by venous puncture from healthy donors, transferred to a 50 ml polypropylene tube containing sodium heparin (14.3 units per mL of HWB) and then placed in a 37° C. water bath until use. To start the assay, 80 μL of heparin-treated HWB containing 1 ng/ml of LPS (equivalent to LPS ˜EC80 with regard to stimulation of IL-6 production in HWB under these assay conditions) was added to each well of a 384-well, sterile, endotoxin-free, polypropylene plate (Greiner 781281) containing 160 nL of various concentrations of test compound (each plate also contained positive and negative control wells to define the upper and lower limits of the assay signal). The plate was then placed in a thermoshaker incubator set to 370C (Boekel 270440). The final assay concentration (FAC) of test compound ranged from 60 to 0.0006 μM and the FAC of DMSO was 0.2%. After 4 hours, the assay plate was removed from the incubator and centrifuged at 700×g for 10 minutes. 5 μL of the resulting upper plasma layer was removed from each well and diluted 1:2 with 1×Dulbecco's phosphate buffered saline (DPBS). 5 μL of this diluted plasma was then transferred to a white 384-well low volume assay plate (Greiner 784080) containing 5 μL of combined anti-IL-6-Cryptate and anti-IL-6-XL665 detection antibodies (per manufacturer's protocol). The plate was then sealed with a Top Seal (Perkin Elmer 6005185) and incubated at room temperature (RT, 20° C.). After 16-18 hrs (overnight), the HTRF assay signal was read on an Envision 2103 plate reader using a Lance Delfia Dual/Bias mirror TRF laser excitation and emission was measured at 665 nm and 615 nm respectively. The percent (%) effect was calculated for each concentration of test compound and was relative to the amount of HTRF signal produced by the positive and negative control wells contained within each assay plate. The concentrations and % effect values for test compounds were plotted versus each other with a proprietary curve fitting program using a four-parameter logistic dose response equation and the concentration of compound required for 50% effect (IC50) was determined.

Row | SMILES | IC50 (BRD4 BD1) [nM] | IC50 [3] [nM] | also measured
1 | Cc1sc2c(c1C)C(c1ccc(Cl)cc1)=N[C@@H](CC(=O)OC(C)(C)C)c1nnc(C)n1-2 [JQ1(−)] | – | – | IC50 (MM1.S cells): > 1000 nM; IC50 (OPM-2 cells): > 1000 nM
2 | CC[C@H](COC)n1c(=O)c(NCCC(=O)O)nc2ccc(-c3c(C)noc3C)nc21 [Example 47, N-{6-(3,5-dimethyl-1,2-oxazol-4-yl)-4-[(2R)-1-methoxybutan-2-yl]-3-oxo-3,4-dihydropyrido[2,3-b]pyrazin-2-yl}-beta-alanine] | 194 | 6160 | IC50 [1]: > 5000 nM; Max % Inh [1]: 81%; Max % Inh (DU-145 cells, AR(−)): 43%; IC50 (DU-145 cells, AR(−); Homo sapiens): > 5000 nM; IC50 (MM1.S cells; Homo sapiens): 39 nM; inhibition of proliferation of MM1.S cells (MM1.S cells; dose dependent manner, FIG. 1.A): inhibited proliferation; IC50 [2]: > 5000 nM; Max % Inh [2]: 80%; IC50 (OPM-2 cells; Homo sapiens): 160 nM; inhibition of proliferation of OPM-2 cells (OPM-2 cells; dose dependent manner, FIG. 1.B): inhibited proliferation; IC50 (C4-2AR-WT cells, AR(+)): > 5000 nM; Max % Inh (C4-2AR-WT cells, AR(+)): 82%; Max % Inh (LnCaP cells, AR(+)): 62%; IC50 (LnCaP cells, AR(+); Homo sapiens): > 5000 nM
3 | Cc1noc(C)c1-c1ccc2nc(NCCC(=O)O)c(=O)n([C@@H](C)C3CCCCC3)c2n1 [Example 55, N-{4-[(1S)-1-cyclohexylethyl]-6-(3,5-dimethyl-1,2-oxazol-4-yl)-3-oxo-3,4-dihydropyrido[2,3-b]pyrazin-2-yl}-beta-alanine] | 130 | 11400 | –
4 | CCC[C@H](COC)n1c(=O)c(NCCC(=O)O)nc2ccc(N(C)C(=O)CC)nc21 [Example 17, N-{4-[(2R)-1-methoxypentan-2-yl]-6-[methyl(propanoyl)amino]-3-oxo-3,4-dihydropyrido[2,3-b]pyrazin-2-yl}-beta-alanine] | 268 | 2430 | –
5 | CCC(=O)N(C)c1ccc2nc(NCCC(=O)O)c(=O)n([C@H](c3ccccn3)C(C)C)c2n1 [Example 23, N-{6-[methyl(propanol)amino]-4-[(1S)-2-methyl-1-(pyridin-2-yl)propyl]-3-oxo-3,4-dihydropyrido[2,3-b]pyrazin-2-yl}-beta-alanine] | 159 | 2300 | –
6 | COCC(COC)n1c(=O)c(NCCC(=O)O)nc2ccc(-c3c(C)noc3C)nc21 [Example 48, N-[4-(1,3-dimethoxypropan-2-yl)-6-(3,5-dimethyl-1,2-oxazol-4-yl)-3-oxo-3,4-dihydropyrido[2,3-b]pyrazin-2-yl]-beta-alanine] | 465 | 15100 | –
7 | CC[C@@H](c1ccccc1)n1c(=O)c(NCCC(=O)O)nc2ccc(N(C)C(C)=O)nc21 [Example 3, N-{6-[acetyl(methyl)amino]-3-oxo-4-[(1S)-1-phenylpropyl]-3,4-dihydropyrido[2,3-b]pyrazin-2-yl}-beta-alanine] | 117 | 2050 | –
8 | CCC(CC)n1c(=O)c(NCCC(=O)O)nc2ccc(-c3c(C)noc3C)nc21 [Example 56, N-[6-(3,5-dimethyl-1,2-oxazol-4-yl)-3-oxo-4-(pentan-3-yl)-3,4-dihydropyrido[2,3-b]pyrazin-2-yl]-beta-alanine] | 346 | 11900 | –
9 | CCC(=O)N(C)c1ccc2nc(NCCC(=O)NC)c(=O)n([C@@H](CC)c3ccccn3)c2n1 [Example 33, N-methyl-N^3-{6-[methyl(propanoyl)amino]-3-oxo-4-[(1S)-1-(pyridin-2-yl)propyl]-3,4-dihydropyrido[2,3-b]pyrazin-2-yl}-beta-alaninamide] | 363 | 452 | –

The remaining molecules from weak to strong by IC50 (BRD4 BD1), led by results:

Row | IC50 (BRD4 BD1) [nM] | IC50 [3] [nM] | SMILES | also measured
10 | 805 | 18100 | CCC(=O)N(C)c1ccc2nc(NCCC(=O)O)c(=O)n(C3(c4ccccc4)CCC3)c2n1 [Example 12, N-{6-[methyl(propanol)amino]-3-oxo-4-(1-phenylcyclobutyl)-3,4-dihydropyrido[2,3-b]pyrazin-2-yl}-beta-alanine] | –
11 | 653 | 1580 | CNc1nc2ccc(N(C)C(C)=O)nc2n([C@@H](C)c2ccccc2OC)c1=O [Example 5, N-{4-[(1S)-1-(2-methoxyphenyl)ethyl]-2-(methylamino)-3-oxo-3,4-dihydropyrido[2,3-b]pyrazin-6-yl}-N-methylacetamide] | –
12 | 110 | 164 | CCC(=O)N(C)c1ccc2nc(NCCC(=O)NC)c(=O)n([C@@H](COC)c3ccccc3)c2n1 [Example 31, N^3-{4-[(1R)-2-methoxy-1-phenylethyl]-6-[methyl(propanoyl)amino]-3-oxo-3,4-dihydropyrido[2,3-b]pyrazin-2-yl}-N-methyl-beta-alaninamide] | –
13 | 99.4 | 2640 | Cc1noc(C)c1-c1ccc2nc(NCCC(=O)O)c(=O)n([C@H](c3ccccn3)C(C)C)c2n1 [Example 54, N-{6-(3,5-dimethyl-1,2-oxazol-4-yl)-4-[(1S)-2-methyl-1-(pyridin-2-yl)propyl]-3-oxo-3,4-dihydropyrido[2,3-b]pyrazin-2-yl}-beta-alanine] | –
14 | 64.8 | 266 | CCC(=O)N(C)c1ccc2nc(NCCC(=O)NC)c(=O)n([C@@H](CC)c3ccccc3)c2n1 [Example 32, N-methyl-N^3-{6-[methyl(propanoyl)amino]-3-oxo-4-[(1S)-1-phenylpropyl]-3,4-dihydropyrido[2,3-b]pyrazin-2-yl}-beta-alaninamide] | –
